{"source": "paper PMC7451048", "about": "(Drug metabolism letters, 2019)", "data": [{"target": "T1, OATP1B3 (Homo sapiens, UniProt Q9NPD5)", "T1 sequence (Q9NPD5 1-702)": "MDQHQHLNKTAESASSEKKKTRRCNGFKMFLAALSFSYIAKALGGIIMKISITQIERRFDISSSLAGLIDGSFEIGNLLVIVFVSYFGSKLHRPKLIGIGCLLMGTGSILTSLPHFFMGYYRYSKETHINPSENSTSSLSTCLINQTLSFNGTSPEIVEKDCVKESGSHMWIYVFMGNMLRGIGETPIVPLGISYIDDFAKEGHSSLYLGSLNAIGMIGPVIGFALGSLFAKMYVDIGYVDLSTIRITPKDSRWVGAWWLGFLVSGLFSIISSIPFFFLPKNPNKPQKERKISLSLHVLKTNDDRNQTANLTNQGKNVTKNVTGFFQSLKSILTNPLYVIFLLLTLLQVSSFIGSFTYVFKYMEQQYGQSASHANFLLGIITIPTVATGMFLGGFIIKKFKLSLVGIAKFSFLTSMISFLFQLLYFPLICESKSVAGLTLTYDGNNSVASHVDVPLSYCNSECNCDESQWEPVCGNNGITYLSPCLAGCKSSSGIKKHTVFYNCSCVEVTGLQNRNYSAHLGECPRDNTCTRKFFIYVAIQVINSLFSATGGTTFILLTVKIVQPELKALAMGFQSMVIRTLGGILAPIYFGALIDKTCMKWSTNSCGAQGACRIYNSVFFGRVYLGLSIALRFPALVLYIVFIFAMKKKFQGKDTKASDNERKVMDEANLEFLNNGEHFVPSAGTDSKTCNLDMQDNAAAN", "assay": "not given", "conditions": "20 μM RIF; BUP 5 μM, OHB 30 μM, TB 10 μM, EB 5 μM; 3 min", "values": [{"smiles": "CC(NC(C)(C)C)C(O)c1cccc(Cl)c1", "note": "(stereo not drawn) [EB, Erythrohydrobupropion]", "Inhibition of cellular uptake by RIF, OATP1B3-overexpressing cells": "no statistically significant differences"}, {"smiles": "C[C@H]1NC(C)(C)CO[C@]1(O)c1cccc(Cl)c1", "note": "[OHB, Hydroxybupropion]", "Inhibition of cellular uptake by RIF, OATP1B3-overexpressing cells": "no statistically significant differences"}, {"smiles": "C[C@H](NC(C)(C)C)[C@@H](O)c1cccc(Cl)c1", "note": "[TB, Threohydrobupropion]", "Inhibition of cellular uptake by RIF, OATP1B3-overexpressing cells": "no statistically significant differences"}]}, {"target": "T1, OATP1B3", "assay": "not given", "conditions": "net cellular uptake, CHO/OATP1B3-overexpressing cells, 3 min, mean ± SD", "units": {"Apparent Vmax": "pmol/mg protein/min"}, "values": [{"smiles": "CC(NC(C)(C)C)C(O)c1cccc(Cl)c1", "note": "(stereo not drawn) [EB, Erythrohydrobupropion]", "Apparent Vmax": "1026±37"}, {"smiles": "C[C@H]1NC(C)(C)CO[C@]1(O)c1cccc(Cl)c1", "note": "[OHB, Hydroxybupropion]", "Apparent Vmax": "1258±86"}, {"smiles": "C[C@H](NC(C)(C)C)[C@@H](O)c1cccc(Cl)c1", "note": "[TB, Threohydrobupropion]", "Apparent Vmax": "2536±97"}]}, {"target": "T1, OATP1B3", "assay": "not given", "conditions": "read-out: Apparent Km; net cellular uptake, CHO/OATP1B3-overexpressing cells, 3 min, mean ± SD", "units": {"Km": "µM"}, "values": [{"smiles": "CC(NC(C)(C)C)C(O)c1cccc(Cl)c1", "note": "(stereo not drawn) [EB, Erythrohydrobupropion]", "Km": "14 ± 2"}, {"smiles": "C[C@H]1NC(C)(C)CO[C@]1(O)c1cccc(Cl)c1", "note": "[OHB, Hydroxybupropion]", "Km": "76 ± 14"}, {"smiles": "C[C@H](NC(C)(C)C)[C@@H](O)c1cccc(Cl)c1", "note": "[TB, Threohydrobupropion]", "Km": "21 ± 3"}]}, {"target": "T2, OATP1B1 (Homo sapiens, UniProt Q9Y6L6)", "T2 sequence (Q9Y6L6 1-691)": "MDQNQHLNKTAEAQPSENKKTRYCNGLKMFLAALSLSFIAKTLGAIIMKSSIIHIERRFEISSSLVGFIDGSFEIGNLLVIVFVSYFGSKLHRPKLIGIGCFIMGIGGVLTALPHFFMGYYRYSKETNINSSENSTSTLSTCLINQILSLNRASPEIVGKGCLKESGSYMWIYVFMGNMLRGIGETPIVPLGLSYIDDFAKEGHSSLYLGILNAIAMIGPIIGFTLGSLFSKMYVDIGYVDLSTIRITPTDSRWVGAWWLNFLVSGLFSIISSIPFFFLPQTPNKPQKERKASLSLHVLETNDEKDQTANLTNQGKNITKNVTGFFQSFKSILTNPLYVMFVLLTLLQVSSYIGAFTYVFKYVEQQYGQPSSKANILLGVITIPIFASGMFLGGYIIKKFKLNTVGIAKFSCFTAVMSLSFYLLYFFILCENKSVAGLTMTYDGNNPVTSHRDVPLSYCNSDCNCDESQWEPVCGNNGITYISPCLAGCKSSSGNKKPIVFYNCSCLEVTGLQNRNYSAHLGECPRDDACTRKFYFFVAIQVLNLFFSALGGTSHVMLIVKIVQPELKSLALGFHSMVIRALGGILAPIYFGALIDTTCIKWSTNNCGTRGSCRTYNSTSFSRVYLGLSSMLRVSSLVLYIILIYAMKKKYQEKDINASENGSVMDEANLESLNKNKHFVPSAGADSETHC", "assay": "not given", "conditions": "20 μM RIF; BUP 5 μM, OHB 10 μM, TB 20 μM, EB 30 μM; 3 min", "values": [{"smiles": "CC(NC(C)(C)C)C(O)c1cccc(Cl)c1", "note": "(stereo not drawn) [EB, Erythrohydrobupropion]", "Inhibition of cellular uptake by RIF, OATP1B1-overexpressing cells": "no statistically significant differences"}, {"smiles": "C[C@H]1NC(C)(C)CO[C@]1(O)c1cccc(Cl)c1", "note": "[OHB, Hydroxybupropion]", "Inhibition of cellular uptake by RIF, OATP1B1-overexpressing cells": "no statistically significant differences"}, {"smiles": "C[C@H](NC(C)(C)C)[C@@H](O)c1cccc(Cl)c1", "note": "[TB, Threohydrobupropion]", "Inhibition of cellular uptake by RIF, OATP1B1-overexpressing cells": "no statistically significant differences"}]}, {"target": "T2, OATP1B1", "assay": "not given", "conditions": "net cellular uptake, CHO/OATP1B1-overexpressing cells, 3 min, mean ± SD", "units": {"Apparent Vmax": "pmol/mg protein/min"}, "values": [{"smiles": "CC(NC(C)(C)C)C(O)c1cccc(Cl)c1", "note": "(stereo not drawn) [EB, Erythrohydrobupropion]", "Apparent Vmax": "1806±133"}, {"smiles": "C[C@H]1NC(C)(C)CO[C@]1(O)c1cccc(Cl)c1", "note": "[OHB, Hydroxybupropion]", "Apparent Vmax": "1423 ± 49"}, {"smiles": "C[C@H](NC(C)(C)C)[C@@H](O)c1cccc(Cl)c1", "note": "[TB, Threohydrobupropion]", "Apparent Vmax": "1351±55"}]}, {"target": "T3, BCRP (Homo sapiens, UniProt Q9UNQ0)", "T3 sequence (Q9UNQ0 1-655)": "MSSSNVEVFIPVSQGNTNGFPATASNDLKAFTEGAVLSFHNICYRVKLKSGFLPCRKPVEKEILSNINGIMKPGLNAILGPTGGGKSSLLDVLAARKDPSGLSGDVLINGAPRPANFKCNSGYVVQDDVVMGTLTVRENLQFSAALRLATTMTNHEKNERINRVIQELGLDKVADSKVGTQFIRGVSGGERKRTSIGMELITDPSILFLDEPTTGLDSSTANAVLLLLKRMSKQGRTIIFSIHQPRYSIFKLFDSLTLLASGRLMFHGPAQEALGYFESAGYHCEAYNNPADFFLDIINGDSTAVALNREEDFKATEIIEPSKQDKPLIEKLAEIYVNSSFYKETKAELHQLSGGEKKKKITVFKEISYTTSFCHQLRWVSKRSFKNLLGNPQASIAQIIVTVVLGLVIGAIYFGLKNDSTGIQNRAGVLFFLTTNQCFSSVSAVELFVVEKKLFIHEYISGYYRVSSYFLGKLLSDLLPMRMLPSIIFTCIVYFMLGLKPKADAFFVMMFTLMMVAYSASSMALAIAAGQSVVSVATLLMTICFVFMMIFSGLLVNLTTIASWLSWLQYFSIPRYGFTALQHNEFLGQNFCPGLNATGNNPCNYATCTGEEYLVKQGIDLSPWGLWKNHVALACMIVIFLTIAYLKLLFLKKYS", "assay": "Plasma membrane vesicle transport assay, BCRP vesicles", "assay_type": "in vitro ADME", "conditions": "not given", "values": [{"smiles": "CC(NC(C)(C)C)C(O)c1cccc(Cl)c1", "note": "(stereo not drawn) [EB, Erythrohydrobupropion]", "Substrate of BCRP (conclusion)": "not substrates"}, {"smiles": "C[C@H]1NC(C)(C)CO[C@]1(O)c1cccc(Cl)c1", "note": "[OHB, Hydroxybupropion]", "Substrate of BCRP (conclusion)": "not substrates"}, {"smiles": "C[C@H](NC(C)(C)C)[C@@H](O)c1cccc(Cl)c1", "note": "[TB, Threohydrobupropion]", "Substrate of BCRP (conclusion)": "not substrates"}]}, {"target": "T3, BCRP", "assay": "Plasma membrane vesicle transport assay, BCRP vesicles", "assay_type": "in vitro ADME", "conditions": "10 μM, 1 min (Fig. 9)", "values": [{"smiles": "CC(NC(C)(C)C)C(O)c1cccc(Cl)c1", "note": "(stereo not drawn) [EB, Erythrohydrobupropion]", "Difference in BCRP vesicle uptake between ATP and AMP": "No significant differences"}, {"smiles": "C[C@H]1NC(C)(C)CO[C@]1(O)c1cccc(Cl)c1", "note": "[OHB, Hydroxybupropion]", "Difference in BCRP vesicle uptake between ATP and AMP": "No significant differences"}, {"smiles": "C[C@H](NC(C)(C)C)[C@@H](O)c1cccc(Cl)c1", "note": "[TB, Threohydrobupropion]", "Difference in BCRP vesicle uptake between ATP and AMP": "No significant differences"}]}, {"target": "P-gp (Homo sapiens, UniProt P08183)", "sequence (P08183 whole entry)": "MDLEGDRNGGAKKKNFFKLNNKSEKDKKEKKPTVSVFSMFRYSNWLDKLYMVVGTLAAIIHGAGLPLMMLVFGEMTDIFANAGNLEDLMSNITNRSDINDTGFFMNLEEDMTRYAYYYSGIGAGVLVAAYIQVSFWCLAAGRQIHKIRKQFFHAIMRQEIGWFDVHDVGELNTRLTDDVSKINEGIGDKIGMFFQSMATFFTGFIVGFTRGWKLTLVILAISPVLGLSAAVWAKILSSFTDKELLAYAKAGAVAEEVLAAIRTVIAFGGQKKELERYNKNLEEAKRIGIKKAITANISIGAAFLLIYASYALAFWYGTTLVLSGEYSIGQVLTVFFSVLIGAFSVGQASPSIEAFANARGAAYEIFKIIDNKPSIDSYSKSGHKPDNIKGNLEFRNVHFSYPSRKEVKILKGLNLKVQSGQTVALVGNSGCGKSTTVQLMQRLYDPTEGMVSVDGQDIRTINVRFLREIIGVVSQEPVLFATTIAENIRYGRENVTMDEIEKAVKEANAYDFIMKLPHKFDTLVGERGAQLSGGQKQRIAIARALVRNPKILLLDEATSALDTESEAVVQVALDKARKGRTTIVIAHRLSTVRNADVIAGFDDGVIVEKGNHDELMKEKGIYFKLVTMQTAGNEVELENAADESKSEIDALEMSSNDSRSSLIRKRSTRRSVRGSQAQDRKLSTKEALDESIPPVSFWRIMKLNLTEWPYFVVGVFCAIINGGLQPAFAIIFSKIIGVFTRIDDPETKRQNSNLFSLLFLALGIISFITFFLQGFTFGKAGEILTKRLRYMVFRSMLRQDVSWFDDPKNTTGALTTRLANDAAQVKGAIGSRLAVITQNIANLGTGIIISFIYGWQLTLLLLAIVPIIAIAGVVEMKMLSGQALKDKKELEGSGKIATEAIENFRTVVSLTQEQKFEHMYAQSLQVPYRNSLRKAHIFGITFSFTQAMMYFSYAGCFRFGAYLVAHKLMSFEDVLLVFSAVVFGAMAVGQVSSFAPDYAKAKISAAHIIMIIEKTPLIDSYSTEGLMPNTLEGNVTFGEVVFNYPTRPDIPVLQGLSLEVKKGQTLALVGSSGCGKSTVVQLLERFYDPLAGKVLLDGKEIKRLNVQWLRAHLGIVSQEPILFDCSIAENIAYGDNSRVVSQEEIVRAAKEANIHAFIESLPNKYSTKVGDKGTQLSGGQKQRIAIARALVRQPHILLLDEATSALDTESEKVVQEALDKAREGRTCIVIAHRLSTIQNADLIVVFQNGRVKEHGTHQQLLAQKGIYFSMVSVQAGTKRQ", "assay": "Plasma membrane vesicle transport assay, P-gp vesicles", "assay_type": "in vitro ADME", "conditions": "not given", "values": [{"smiles": "CC(NC(C)(C)C)C(O)c1cccc(Cl)c1", "note": "(stereo not drawn) [EB, Erythrohydrobupropion]", "Substrate of P-gp (conclusion)": "not substrates"}, {"smiles": "C[C@H]1NC(C)(C)CO[C@]1(O)c1cccc(Cl)c1", "note": "[OHB, Hydroxybupropion]", "Substrate of P-gp (conclusion)": "not substrates"}, {"smiles": "C[C@H](NC(C)(C)C)[C@@H](O)c1cccc(Cl)c1", "note": "[TB, Threohydrobupropion]", "Substrate of P-gp (conclusion)": "not substrates"}]}, {"target": "P-gp (Homo sapiens, UniProt P08183)", "assay": "Plasma membrane vesicle transport assay, P-gp vesicles", "assay_type": "in vitro ADME", "conditions": "10 μM, 1 min (Fig. 9)", "values": [{"smiles": "CC(NC(C)(C)C)C(O)c1cccc(Cl)c1", "note": "(stereo not drawn) [EB, Erythrohydrobupropion]", "Difference in P-gp vesicle uptake between ATP and AMP": "No significant differences"}, {"smiles": "C[C@H]1NC(C)(C)CO[C@]1(O)c1cccc(Cl)c1", "note": "[OHB, Hydroxybupropion]", "Difference in P-gp vesicle uptake between ATP and AMP": "No significant differences"}, {"smiles": "C[C@H](NC(C)(C)C)[C@@H](O)c1cccc(Cl)c1", "note": "[TB, Threohydrobupropion]", "Difference in P-gp vesicle uptake between ATP and AMP": "No significant differences"}]}, {"target": "T2, OATP1B1", "assay": "not given", "conditions": "not given", "values": [{"smiles": "CC(NC(C)(C)C)C(O)c1cccc(Cl)c1", "note": "(stereo not drawn) [EB, Erythrohydrobupropion]", "Substrate of OATP1B1 (conclusion)": "not substrates"}, {"smiles": "C[C@H]1NC(C)(C)CO[C@]1(O)c1cccc(Cl)c1", "note": "[OHB, Hydroxybupropion]", "Substrate of OATP1B1 (conclusion)": "not substrates"}, {"smiles": "C[C@H](NC(C)(C)C)[C@@H](O)c1cccc(Cl)c1", "note": "[TB, Threohydrobupropion]", "Substrate of OATP1B1 (conclusion)": "not substrates"}]}]}
